According to patent publication US20210121482A1, “WITHANOLIDES FOR THE TREATMENT OF CACHEXIA” (University of Louisville Research Foundation, Inc., priority 2019, published 2021):

What was measured:
[1] = test system: Tn-I, AT2R and pro-inflammatory cytokines in the heart; assay: qPCR of heart; assay type: in vivo, Mus musculus; settings: for relative transcript level of AT2R in the heart: compared to control
Procedure: (§1) Total RNA Extraction and qPCR: Isolation of total RNA from xenografted tumor samples was performed using an RNeasy® Mini Kit (Qiagen Catalog #74104) according to the manufacturer's instructions. Isolation of total RNA from skeletal muscle was performed using an RNeasy® Fibrous Tissue Mini Kit (Qiagen Catalog #74704) according to the manufacturer's instructions. First strand cDNA was synthesized using 1 μg of purified RNA and a commercially available kit (iScript™ cDNA synthesis, Bio-Rad Catalog #170-8891), Quantification of mRNA expression was performed similar to as previously described (Hindi and Kumar, 2016) using the SYBR Green dye method on a StepOnePlus™ system (Applied Biosystems) using gene-specific primers, as shown in Table 1.
Isolation and preparation of total RNA was performed as described in Example 1.

SKOV3 = SKOV3 cells; cited from earlier work
TA, GA and QF muscles = assay: Muscle mass and TA myofiber CSA (Example 2); assay type: in vivo, mice
Excerpt: Histology and Morphometric Analysis of Skeletal Muscle: Select muscles of the lower limb of the mice were isolated, flash frozen in liquid nitrogen, mounted in O.C.T. embedding medium, and then sectioned using a microtome cryostat. To assess tissue morphology, 10 μm thick transverse sections were cut from the mid-belly of the tibialis anterior (TA) and then subjected to Hematoxylin and Eosin (H&E) staining. Images of H&E-stained TA muscle sections were quantified using Fiji software (National Institute of Health software) to measure myofiber cross-sectional area (CSA). Skeletal myofiber CSA was calculated by analyzing ˜500-700 myofibers per muscle as previously described (32).
Post-mortem, select muscles of the lower extremities, including tibialis anterior (TA), gastrocnemius (GA), and quadriceps femoris (QF), were collected and weighed to detect changes in muscle mass, with results shown in FIG. 14A-14C, respectively. Muscle weights were normalized by the initial body weight (I.B.W.) to account for differences in the size of the mouse/muscle at baseline, while excluding the confounding effect of tumor burden on body weight.

[2] = test system: ovarian cancer-induced cachexia; assay: Grip strength, tumor-free and tumor-bearing mice (Example 2); assay type: in vivo; settings: terminal week
Procedure: (§2) Grip Strength Measurements: Before assessment, mice were weighed on a commercially available digital scale. Forepaw and total grip strength of mice were measured using a digital grip strength meter (Columbus Instruments, Columbus, Ohio, USA) and then normalized by total body weight. Before the beginning of the test, the mice were acclimatized for five minutes. The mouse was allowed to grasp the total paw pull-bar assembly, and in a separate experiment the forepaw pull-bar assembly. The mouse was then gently drawn with constant force in a straight line away from the device until the mouse could no longer grasp the bar. Force at time of release was recorded as the peak tension. Each mouse was tested five times with a delay of 20-40 seconds between each testing. The mean peak tension was calculated from the recordings normalized by total body weight.
Grip Strength Measurements: as in Example 1.

[3] = test system: inflammatory cytokines and NLRP3 inflammasome markers in TA muscle; assay: qPCR of TA muscle; assay type: in vivo, Mus musculus
Procedure: as §1

[4] = test system: Pax7, Myod1, UPR, UPS and ALS markers in GA muscle; assay: qPCR of GA muscle (Pax7, Myod1, UPR, UPS, ALS markers); assay type: in vivo, Mus musculus
Procedure: as §1
Total RNA Extraction and qPCR: as in Example 1.

[5] = test system: heart (cardiomyocytes, collagen deposition); assay: Histology and morphometric heart analysis; assay type: in vivo, mice
Excerpt: The hearts were isolated, flash frozen in liquid nitrogen, mounted in O.C.T. embedding medium, and then sectioned using a microtome cryostat. To assess tissue morphology, 8 μm thick transverse sections were cut from the mid-ventricle of the heart. These sections were then subjected to H&E staining or Masson's trichrome staining. Images of H&E-stained and Masson's trichrome-stained heart sections were quantified using Fiji software (National Institutes of Health software) to measure myofiber cross-sectional area (CSA) or the degree of collagen deposition, respectively. Cardiac myofiber CSA was calculated by analyzing 100-200 fibers per heart. Collagen deposition was quantified from the Masson's trichrome-stained tissue.

[6] = test system: TNFα, IFNγ, IL-6, IL-8, IL-18 in tumor samples; assay: Human MAP multiplex assay of tumor samples; assay type: in vivo; settings: vs vehicle treated group
Excerpt: Samples were minced on ice with sterilized scissors.

A2780 = assay: Effect on ovarian cancer cell line A2780; assay type: cell-based; settings: A2780 cells; through reactive oxygen species production and DNA damage
[7] = test system: ovarian cancer-induced cachexia; assay: Grip strength (Example 1); assay type: in vivo, mice; settings: for normalized forelimb grip strength: 2 and 6 mg/kg
Procedure: as §2

[8] = tumor-bearing, both doses, vs tumor-bearing vehicle
[9] = 2 mg/kg, vs vehicle treated group
[10] = 6 mg/kg, vs vehicle treated group
[11] = tumor-bearing, 2 mg/kg, vs tumor-bearing vehicle
[12] = tumor-bearing, 4 mg/kg, vs tumor-bearing vehicle
[13] = tumor-bearing, 2 and 4 mg/kg, vs tumor-bearing vehicle
[14] = tumor-free, 4 mg/kg, vs tumor-free vehicle
[15] = tumor-free, WFA-treated groups vs vehicle-treated

CC1=C(CO)C(=O)O[C@@H]([C@@H](C)[C@H]2CC[C@H]3[C@@H]4C[C@H]5O[C@]56[C@@H](O)C=CC(=O)[C@]6(C)[C@H]4CC[C@]23C)C1 [WFA, (4β,5β,6β,22R)-4,27-Dihydroxy-5,6:22,26-diepoxyergosta-2,24-diene-1,26-dione]
relative transcript levels of TNFα, IL-6, MIP-2, IFNγ in the heart ([1]; tumor-bearing WFA-treated groups): significantly reduced in the WFA-treated groups | transcript levels of IFNγ in the heart ([1]; tumor-bearing WFA-treated groups, normalized to tumor-bearing vehicle): significantly reduced in the WFA-treated groups | relative transcript level of AT2R in the heart ([1]; tumor-bearing, WFA 2 mg/kg): 3.5±1.8 fold | relative transcript level of AT2R in the heart ([1]; tumor-bearing, WFA 4 mg/kg): 5.2±3.2 fold | reduction in relative transcript levels of Troponin-I (Tn-I) in heart [1, 8]: significantly blunted | cell cycle arrest and apoptosis (SKOV3): induces cell cycle arrest and the induction of apoptosis | normalized wet weight of TA and GA muscles (TA, GA and QF muscles; tumor-bearing, 2 and 4 mg/kg, vs vehicle-treated): statistically significant increase in normalized wet weight of the TA and GA muscles | average myofibrillar cross-sectional area (CSA) in TA muscle (TA, GA and QF muscles; tumor-bearing, WFA 2 mg/kg): 1629.72±94.96 μm2 | average myofibrillar cross-sectional area (CSA) in TA muscle (TA, GA and QF muscles; tumor-bearing, WFA 4 mg/kg): 1748.13±68.90 μm2 | normalized weight of TA, GA and QF muscles (TA, GA and QF muscles; tumor-free, 4 mg/kg, vs vehicle-treated, normalized by initial body weight): significant increase in normalized weight of the TA, GA, and QF muscles | average myofibrillar cross-sectional area (CSA) in TA muscle (TA, GA and QF muscles; tumor-free, WFA 2 mg/kg): 1916.39±85.72 μm2 | average myofibrillar cross-sectional area (CSA) in TA muscle (TA, GA and QF muscles; tumor-free, WFA 4 mg/kg): 1904.98±80.50 μm^2 | forelimb and total grip strengths ([2]; tumor-bearing mice, 2 and 4 mg/kg, vs tumor-bearing vehicle): significantly increased compared to the tumor-bearing vehicle-treated | total grip strength ([2]; tumor-free mice, 4 mg/kg, vs tumor-free vehicle): significantly improved the total grip strength of the tumor-free mice | forelimb grip strength ([2]; tumor-free mice, 2 and 4 mg/kg, vs tumor-free vehicle): significantly improved the forelimb grip strength of tumor-free mice | relative mRNA levels of TNFα, IFNγ, IL-6, MIP-2 in TA muscle [3, 9]: significantly reduced | transcript levels of HO-1 in TA muscle [3, 9]: increased compared to the vehicle treated group | transcript levels of NLRP3, CASP1, IL-1β, IL-18 in TA muscle [3, 9]: significant reduction in all tested NLRP3 inflammasome transcript levels | relative mRNA levels of TNFα, IFNγ, IL-6, MIP-2 in TA muscle ([3]; 6 mg/kg, vs control and WFA 2 mg/kg groups): robust increase in the expression of select proinflammatory cytokines | transcript levels of CASP1 and IL-1β in TA muscle ([3]; 6 mg/kg, vs control group): significantly increased | transcript levels of HO-1 in TA muscle ([3]; 6 mg/kg, vs control or vehicle treated groups): no significant changes in HO-1 expression | relative mRNA levels of NLRP3 and IL-18 in TA muscle [3, 10]: significantly reduced | relative transcript levels of IFNγ and MIP-2 in TA muscle [3, 10]: significantly reduced | relative transcript levels of TNFα and IL-6 in TA muscle ([3]; 6 mg/kg, vs vehicle treated group (p=0.09 and <0.0001)): increased | relative transcript levels of Ddit3 in GA muscle [4, 11]: upregulation of relative transcript levels of Ddit3 | relative transcript levels of Ern1 in GA muscle [4, 11]: no significant difference in relative transcript levels of Ern1 | transcript levels of Eif2ak3, Atf4, Pppr1r15a, Hspa5, Hsp90B1, Tnfrsf10B in GA muscle [4, 11]: reduction in Eif2ak3, Atf4, Pppr1r15a, Hspa5, Hsp90B1, and Tnfrsf10B | relative transcript levels of Ddit3 and Ern1 in GA muscle [4, 12]: significant increase in relative transcript levels of Ddit3 and Ern1 | transcript levels of Eif2ak3, Atf4, Pppr1r15a, Hspa5, Hsp90B1, Tnfrsf10B in GA muscle [4, 12]: decrease in relative transcript levels of Eif2ak3, Atf4, Pppr1r15a, Hspa5, Hsp90B1, and Tnfrsf10B | relative mRNA expression of Sqstm1, Map1lc3b, Becn1 [4, 13]: significant dose-dependent reduction in relative mRNA expression of the select ALS markers | transcription of Fbxo30, Fbxo32, Trim63, Traf6 [4, 13]: statistically significant dose-dependent transcriptional downregulation of Fbxo30, Fbxo32, Trim63, and Traf6 | relative transcript levels of Pax7 and Myod1 in GA muscle ([4]; tumor-free and tumor-bearing WFA-treated groups): significant increases in both Pax7 and Myod1 | relative transcriptional expression of Fbxo30 and Traf6 ([4]; tumor-free, 2 mg/kg, vs vehicle-treated): significant reduction in the relative transcriptional expression of Fbxo30 and Traf6 | relative gene expression of Fbxo30, Fbxo32, Trim63, Traf6 [4, 14]: significant reduction in relative gene expression of Fbxo30, Fbxo32, Trim63, and Traf6 | relative gene expression of Sqstm1, Map1lc3b, Becn1 [4, 14]: significant reduction in relative gene expression | transcript levels of Atf4 and Tnfrsf10B in GA muscle [4, 15]: no change in transcript levels of Atf4 and Tnfrsf10B | transcript levels of Eif2ak3, Ddit3, Pppr1r15a, Ern1 in GA muscle [4, 15]: transcriptional upregulation of Eif2ak3, Ddit3, Pppr1r15a, and Ern1 | transcript levels of Hspa5 and Hsp90B1 in GA muscle [4, 15]: downregulation of Hspa5 and Hsp90B1 | cross-sectional area (CSA) of cardiomyocytes ([5]; tumor-bearing WFA-treated groups vs tumor-bearing vehicle): partial recovery of the CSA of cardiomyocytes | reduction in heart weight (normalized by tibial length) [5, 8]: significantly blunted | percentage of connective tissue in heart ([5]; tumor-bearing, either dose, vs tumor-bearing vehicle): significantly decreased | collagen deposition / connective tissue in heart ([5]; tumor-free WFA-treated groups vs tumor-free vehicle): comparable amount of connective tissue | heart weight ([5]; tumor-free animals): did not have any effect on heart weight in tumor-free animals | cytokine levels of IL-18 in tumor (multiplex) ([6]; 2 and 6 mg/kg): significant reduction in the cytokine levels of IL-18 | levels of TNFα, IFNγ, IL-6, IL-8 in tumor (multiplex) ([6]; high dose (6 mg/kg)): mixed result of up- and downregulation of proinflammatory cytokines | levels of TNFα, IFNγ, IL-6, IL-8 in tumor (multiplex) ([6]; low dose (2 mg/kg)): significantly reduced the expression of all proinflammatory cytokines tested | cell death (A2780): autophagic cell death | normalized total limb grip strength ([7]; 2 mg/kg, vs vehicle treated group, weeks 1-3): significant protective effect on total limb grip strength | normalized total limb grip strength [7, 10]: initially protective, but the grip strength eventually deteriorated to the same extent as the vehicle treated group | normalized forelimb grip strength ([7]; vs control group, significant at week 3): reduction in normalized grip strength | normalized forelimb grip strength ([7]; vs vehicle treated group, significant by week 2): attenuation of normalized forelimb grip strength
